The test concerns K562. Briefly: Cytotoxicity against human K562 cells. It counts as functional. As to conditions: read-out: LC50 (the source's name).

Values after ≈ are worked out from the molar mass of the structure shown.

Take `C=C1CC[C@@H]2O[C@@]2(C)CC[C@@H]2[C@H](CCC=C(C)C)C(=O)OC[C@@H]12` [ACALYCIXENIOLIDE F]: the CC50 was determined as 0.2 µg/mL (≈ 0.628 µM). Consider `C=C=CCC(OC(C)=O)C1=CO[C@H](OC(C)=O)[C@H]2C(=C)CC[C@@H]3O[C@@]3(C)CC[C@H]12` (some centres undefined) [ACALYCIXENIOLIDE E], for which the CC50 was determined as 4.7 µg/mL (≈ 11.7 µM). `C=C=CC/C=C1/C(=O)OC[C@H]2C(=C)CC[C@@H]3O[C@@]3(C)CC[C@H]12` [ACALYCIXENIOLIDE D]: the CC50 came out at 52 µg/mL (≈ 173 µM). As for `C=C=CCC[C@@H]1C(=O)OC[C@H]2C(=C)CC[C@@H]3O[C@@]3(C)CC[C@H]12` [ACALYCIXENIOLIDE C], the figure is 1.6 µg/mL (≈ 5.29 µM).

(Values after ChEMBL document CHEMBL1155679, “New xenicane diterpenoids from the gorgonian Acalycigorgia inermis” (2000).)
